Test results: patent EP4775567A1, “IONIZABLE CATIONIC LIPID COMPOUNDS AS WELL AS PREPARATION METHOD THEREFOR AND USE THEREOF” (Scindy Pharmaceutical (Suzhou) Co., Ltd, priority 2023, dated 2025)

How the values were obtained:
[1] = Particle size and polydispersity index (PDI) by dynamic light scattering; type: physicochemical; conditions: luciferase mRNA lipid nanoparticles prepared from the compound; 25°C
Procedure: (§1) Luciferase mRNA was diluted in a 10-100 mM sodium citrate buffer solution at pH 4.0, with the concentration of the mRNA solution being 135 µg/ml. A mixed lipid ethanol solution was prepared at a molar ratio of ionizable cationic lipid compound (each exemplary compound) : DSPC: cholesterol : 2-[(polyethylene glycol)-2000]-N,N-ditetradecylacetamide (ALC-0159) of 50:10:38.5:1.5. The mRNA solution and the mixed lipid solution were mixed at a volume ratio of 3:1 in a nanodrug preparation device, followed by ultrafiltration to obtain luciferase mRNA lipid nanoparticles.
(§2) • 1. Determination of particle size and polydispersity index (PDI): The average particle size and PDI of the nanoparticle sample solutions in the examples were determined by dynamic light scattering using Malvern ZetaSizer Nano ZS90. The measurement angle was 90°, the refractive index of the dispersant was 1.330, and the test temperature was 25°C. • 2. Zeta potential: The Zeta potential of the nanoparticle sample solutions in the examples was determined by electrophoretic light scattering (ELS) using Malvern ZetaSizer Nano ZS90. Refractive index of the dispersant: 1.330, Test temperature: 25°C. • 3. Encapsulation Rate: The Encapsulation Rate of luciferase mRNA in lipid nanoparticles was determined using a Quant-it Ribogreen RNA quantitation kit (ThermoFisher Scientific, UK) in accordance with the manufacturer's instructions.

[2] = Zeta potential by electrophoretic light scattering; type: physicochemical; conditions: luciferase mRNA lipid nanoparticles prepared from the compound; 25°C
Procedure: as §1, §2

[3] = Encapsulation Rate of luciferase mRNA in lipid nanoparticles (Quant-it Ribogreen RNA kit); type: physicochemical; conditions: luciferase mRNA in lipid nanoparticles prepared from the compound
Procedure: as §1, §2

[4] = Apparent pKa of blank lipid nanoparticles by TNS fluorescence; type: physicochemical; conditions: compound:DSPC:cholesterol:ALC-0159 50:10:38.5:1.5, pH 2 to 11
Procedure: The apparent pKa of lipid nanoparticles is correlated with the efficacy of lipid nanoparticles in delivering nucleic acids (see Jayaraman et al., Angewandte Chemie, International Edition (2012), 51(34), 8529-8533; Semple et al., Nature Biotechnology 28, 172-176 (2010)). The apparent pKa of nanoparticles prepared from different lipid compounds was determined using fluorescence based on 2-(p-toluidino)-6-naphthalenesulfonic acid (TNS). The fluorescent probe has no fluorescence in water but […] emits fluorescence when bound to lipid membranes. Blank lipid nanoparticles were prepared at a molar ratio of ionizable cationic lipid compound (each exemplary compound) : DSPC : cholesterol : 2-[(polyethylene glycol)-2000]-N,N-ditetradecylacetamide (ALC-0159) of 50:10:38.5:1.5. They were diluted in different pH buffer solutions having a pH ranging from 2 to 11. An aqueous TNS solution was added and mixed. Then, the mixtures were added to a 96-well plate (black bottom), respectively. Detection was performed with excitation wavelength at 325 nm and the emission wavelength at 435 nm, with top detection. Measurement was performed 10 times for each well, and the fluorescence intensity was recorded. A pH-fluorescence intensity curve was plotted to determine the apparent pKa.

[5] = test system: female Balb/c mice; test: In vivo transfection efficiency and safety of luciferase mRNA lipid nanoparticles (whole-body live imaging); conditions: tail vein injection, single dose 0.3 mpk, 6 h after administration
Procedure: as §1
6-8 week-old female Balb/c mice were used to evaluate the in vivo transfection efficiency and safety of lipid nanoparticle compositions prepared from each exemplary compound. The lipid nanoparticles prepared from each exemplary compound were administered by tail vein injection at a single dose of 0.3 mpk. At specific time points after administration (e.g., 3 h, 6 h), live imaging of the animals was performed using a PerkinElmer small animal imaging system to determine the bioluminescent signal. The whole-body live imaging of mice at 3 h/6 h after intravenous administration of luciferase mRNA lipid nanoparticles prepared from Compound 1008 is shown in Fig. 2. […] Table 3 Summary of in vitro/in vivo Activity Evaluation of Lipid Nanoparticles Prepared from Compounds

[6] = test system: HEK 293T cells; test: In vitro transfection efficiency of luciferase mRNA lipid nanoparticles (luciferase activity); type: cell-based; conditions: for HEK 293T Cell Luciferase Activity: 100 ng dose, 96-well plate, 24 h incubation, luciferase mRNA lipid nanoparticles
Procedure: as §1
HEK-293T cells were used to evaluate the in vitro transfection efficiency of lipid nanoparticle compositions prepared from each exemplary compound. HEK293T cells were routinely cultured in DMEM + 10% FBS medium to ensure the cells were in the logarithmic growth phase. One day before transfection, the cells were seeded into a 96-well culture plate at an appropriate cell density and grown overnight. At the time of transfection, the cell confluency needed to reach 70-90%. The lipid nanoparticle compositions prepared from each exemplary compound were diluted into 4 different dose concentrations with DMEM and added to the 96-well cell culture plate, resulting in final concentrations of 400 ng, 200 ng, 100 ng and 50 ng per well, respectively. luciferase plasmid transfected using Lipofectamine 2000 was used as the positive control (PC). After incubation for 24 h in a 5% CO2 incubator at 37°C, the substrate was added to the wells, and the luciferase activity was determined using a microplate reader. […] The luciferase activity of the luciferase mRNA lipid nanoparticles prepared from Compound 1005 in HEK293T cells is shown in Fig. 1.

| SMILES | Particle Size [1] [nm] | Polydispersity Index (PDI) [1] | Zeta Potential [2] [mV] | Encapsulation Rate [3] [%] | Apparent pKa [4] | Mouse Whole-Body Average Fluorescence Signal [5] | HEK 293T Cell Luciferase Activity [6] | fluorescence intensity of luciferase expressed in HEK 293T cells ([6]; different doses (50-400 ng per well), Fig. 1) |
| --- | --- | --- | --- | --- | --- | --- | --- | --- |
| CCCCCCCCCCCC(CCCCCC)C(=O)OCC(COC(=O)C(CCCCCC)CCCCCCCCCCC)(COC(=O)C(CCCCCC)CCCCCCCCCCC)NCCC(=O)NCCN(C)C (stereo not shown) [Compound 1007] | 85.78 | 0.068 | -4.98 | 95.9 | 5.13 | 1.34×10^6 p/s/cm^2/sr | 1.60×10^5 RLU | – |
| CCCCCCCCCC(CCCCCCCC)C(=O)OCC(COC(=O)C(CCCCCCCC)CCCCCCCCC)(COC(=O)C(CCCCCCCC)CCCCCCCCC)NCCOCCN(C)C (stereo not shown) [Compound 1059] | 72.71 | 0.067 | -10.0 | 93.0 | 5.18 | 4.94×10^5 p/s/cm^2/sr | 1.32×10^4 RLU | – |
| CCCCCCCCCCCCCCCC(CC)C(=O)OCC(COC(=O)C(CC)CCCCCCCCCCCCCCC)(COC(=O)C(CC)CCCCCCCCCCCCCCC)NC(=O)CCCCN(C)CCCCO (stereo not shown) [Compound 1113] | 58.00 | 0.082 | 4.57 | 100.3 | 5.91 | 3.56×10^7 p/s/cm^2/sr | 3.43×10^4 RLU | – |
| CCCCCCCCCC(CCCCCCCC)C(=O)OCC(COC(=O)C(CCCCCCCC)CCCCCCCCC)(COC(=O)C(CCCCCCCC)CCCCCCCCC)NCCC(=O)NCCN(C)CCCCO (stereo not shown) [Compound 1118] | 108.1 | 0.051 | -3.96 | 95.9 | 5.11 | 1.77×10^8 p/s/cm^2/sr | 1.48×10^4 RLU | – |
| CCCCCCCCCC(CCCCCCCC)C(=O)OCC(COC(=O)C(CCCCCCCC)CCCCCCCCC)(COC(=O)C(CCCCCCCC)CCCCCCCCC)NCCCCCCN(C)CCCCO (stereo not shown) [Compound 1120] | 98.18 | 0.049 | -6.05 | 97.2 | 6.14 | 3.52×10^8 p/s/cm^2/sr | 2.35×10^4 RLU | – |

More lines, main results first:

| Particle Size [1] [nm] | Polydispersity Index (PDI) [1] | Zeta Potential [2] [mV] | Encapsulation Rate [3] [%] | Apparent pKa [4] | SMILES | Mouse Whole-Body Average Fluorescence Signal [5] | HEK 293T Cell Luciferase Activity [6] | fluorescence intensity of luciferase expressed in HEK 293T cells ([6]; different doses (50-400 ng per well), Fig. 1) |
| --- | --- | --- | --- | --- | --- | --- | --- | --- |
| 55.44 | 0.076 | -0.105 | 91.7 | 6.10 | CCCCCCCCCCCCCCCC(CC)C(=O)OCC(COC(=O)C(CC)CCCCCCCCCCCCCCC)(COC(=O)C(CC)CCCCCCCCCCCCCCC)NCCC(=O)NCCN(C)C (stereo not shown) [Compound 1005] | 1.21×10^6 p/s/cm^2/sr | 1.01×10^8 RLU | > 10^7 RLU |
| 73.49 | 0.019 | -6.06 | 95.1 | 6.14 | CCCCCCCCCC(CCCCCCCC)C(=O)OCC(COC(=O)C(CCCCCCCC)CCCCCCCCC)(COC(=O)C(CCCCCCCC)CCCCCCCCC)NCCC(=O)NCCN(C)C (stereo not shown) [Compound 1008] | 7.66×10^5 p/s/cm^2/sr | 1.86×10^6 RLU | – |
| 67.63 | 0.126 | 2.60 | 92.7 | 5.23 | CCCCCCCCCCCCCC(CC)C(=O)OCC(COC(=O)C(CC)CCCCCCCCCCCCC)(COC(=O)C(CC)CCCCCCCCCCCCC)NCCC(=O)NCCN(C)C (stereo not shown) [Compound 1009] | 5.99×10^4 p/s/cm^2/sr | 6.15×10^7 RLU | – |
| 60.38 | 0.193 | 2.31 | 91.8 | 6.30 | CCCCCCCCCCCCCCCC(CC)C(=O)OCC(COC(=O)C(CC)CCCCCCCCCCCCCCC)(COC(=O)C(CC)CCCCCCCCCCCCCCC)NCCC(=O)NCCN(CC)CC (stereo not shown) [Compound 1011] | 1.29×10^5 p/s/cm^2/sr | 8.22×10^7 RLU | – |
| 80.07 | 0.051 | 0.811 | 87.4 | 6.05 | CCCCCCCCCCCCCCCC(CC)C(=O)OCC(COC(=O)C(CC)CCCCCCCCCCCCCCC)(COC(=O)C(CC)CCCCCCCCCCCCCCC)NCCC(=O)NCCN(CCC)CCC (stereo not shown) [Compound 1012] | 2.02×10^5 p/s/cm^2/sr | 6.61×10^5 RLU | – |
| 82.41 | 0.123 | -2.23 | 90.7 | 5.75 | CCCCCCCCCCCCCCCC(CC)C(=O)OCC(COC(=O)C(CC)CCCCCCCCCCCCCCC)(COC(=O)C(CC)CCCCCCCCCCCCCCC)NCCC(=O)NCCN(CCCC)CCCC (stereo not shown) [Compound 1013] | 1.69×10^4 p/s/cm^2/sr | 9.87×10^4 RLU | – |
| 77.94 | 0.057 | -3.71 | 90.6 | 5.41 | CCCCCCCCCCCCCCCC(CC)C(=O)OCC(COC(=O)C(CC)CCCCCCCCCCCCCCC)(COC(=O)C(CC)CCCCCCCCCCCCCCC)NCCC(=O)OCCN(C)C (stereo not shown) [Compound 1029] | 3.27×10^4 p/s/cm^2/sr | 8.23×10^4 RLU | – |
